Laboratory results taken from patent US11312723B2, “Pyranopyrazole and pyrazolopyridine immunomodulators for treatment of autoimmune diseases” (The Rockefeller University, priority 2017, dated 2022).

What was measured:
Human alpha-thrombin = Human alpha-thrombin (Homo sapiens (Human), UniProt P00734); experiment: Thrombin counterscreen for selectivity, fluorogenic substrate cleavage; type: biochemical; settings: 10 min pre-incubation, Boc-Val-Pro-Arg-AMC 20 μM
Human FXIIa = Human FXIIa (Homo sapiens (Human), UniProt P00748); experiment: Factor XIIa (FXIIa) inhibitory activity, chromogenic substrate (Pefachrome XIIa) cleavage; type: biochemical; settings: 10 min pre-incubation, Pefachrome XIIa 400 μM
Sequence of Human FXIIa (P00748 373-615): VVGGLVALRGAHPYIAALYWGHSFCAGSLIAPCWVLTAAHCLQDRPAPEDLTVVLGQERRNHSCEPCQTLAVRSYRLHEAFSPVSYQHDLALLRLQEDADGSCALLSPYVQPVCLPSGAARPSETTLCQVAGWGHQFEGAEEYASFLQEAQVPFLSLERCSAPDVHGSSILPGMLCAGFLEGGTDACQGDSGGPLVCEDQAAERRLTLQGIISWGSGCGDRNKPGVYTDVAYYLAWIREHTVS
Sequence of Human FXIIa (P00748 20-372 partner): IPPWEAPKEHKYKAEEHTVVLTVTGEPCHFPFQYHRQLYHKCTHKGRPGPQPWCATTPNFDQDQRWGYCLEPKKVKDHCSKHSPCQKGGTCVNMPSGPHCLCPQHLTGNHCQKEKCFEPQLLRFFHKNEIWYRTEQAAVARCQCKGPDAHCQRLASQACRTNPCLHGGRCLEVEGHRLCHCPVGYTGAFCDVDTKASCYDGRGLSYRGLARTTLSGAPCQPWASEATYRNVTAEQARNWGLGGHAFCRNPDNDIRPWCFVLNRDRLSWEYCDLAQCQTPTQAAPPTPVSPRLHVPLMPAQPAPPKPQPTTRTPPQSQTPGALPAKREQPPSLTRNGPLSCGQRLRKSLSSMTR

SMILES | IC50 (Human alpha-thrombin) [µM] | IC50 (Human FXIIa) [µM]
CCN1CCc2c(c(N)nn2C(=O)C2CCNc3ccccc32)C1 (stereo not shown) [Example 94, (3-amino-5-ethyl-4,5,6,7-tetrahydro-pyrazolo[4,3-c]pyridin-1-yl)(1,2,3,4-tetrahydro-quinolin-4-yl)methanone] | > 80 | > 50
CC(=O)N1CCc2nn(C(=O)C3CCNc4ccccc43)c(N)c2C1 (stereo not shown) [Example 95, 1-(3-amino-2-(1,2,3,4-tetrahydro-quinoline-4-carbonyl)-6,7-dihydro-2H-pyrazolo[4,3-c]pyridin-5(4H)-yl)ethanone] | > 50 | 0.7
CN1CCc2nn(C(=O)C3CCCc4[nH]ccc43)c(N)c2C1 (stereo not shown) [Example 97, (3-amino-5-methyl-4,5,6,7-tetrahydro-pyrazolo[4,3-c]pyridin-2-yl)(4,5,6,7-tetrahydro-1H-indol-4-yl)methanone] | > 80 | 8.5
CN1CCc2c(c(N)nn2C(=O)C2CCCc3[nH]ccc32)C1 (stereo not shown) [Example 98, (3-amino-5-methyl-4,5,6,7-tetrahydro-pyrazolo[4,3-c]pyridin-1-yl)(4,5,6,7-tetrahydro-1H-indol-4-yl)methanone] | 70 | 20
CC(=O)N1CCc2c(nn(C(=O)c3cccc4[nH]c(C)cc34)c2N)C1 [Example 99, 1-(3-amino-2-(2-methyl-1H-indole-4-carbonyl)-4,5-dihydro-2H-pyrazolo[3,4-c]pyridin-6(7H)-yl)ethanone] | > 50 | 0.04
Cc1cc2c(C(=O)n3nc4c(c3N)CCN(S(C)(=O)=O)C4)cccc2[nH]1 [Example 101, (3-amino-6-(methylsulfonyl)-4,5,6,7-tetrahydro-pyrazolo[3,4-c]pyridin-2-yl)(2-methyl-1H-indol-4-yl)methanone] | 10 | 0.02
CS(=O)(=O)N1CCc2c(nn(C(=O)C3CCNc4ccccc43)c2N)C1 (stereo not shown) [Example 103, (3-amino-6-(methylsulfonyl)-4,5,6,7-tetrahydro-pyrazolo[3,4-c]pyridin-2-yl)(1,2,3,4-tetrahydro-quinolin-4-yl)methanone] | 30 | 0.35
CS(=O)(=O)N1CCc2c(N)nn(C(=O)C3CCNc4ccccc43)c2C1 (stereo not shown) [Example 104, (3-amino-6-(methylsulfonyl)-4,5,6,7-tetrahydro-pyrazolo[3,4-c]pyridin-1-yl)(1,2,3,4-tetrahydro-quinolin-4-yl)methanone] | > 85 | 80
Nc1c2c(nn1C(=O)C1CCNc3ccccc31)CN(S(=O)(=O)c1ccccc1)CC2 (stereo not shown) [Example 105, (3-amino-6-(phenylsulfonyl)-4,5,6,7-tetrahydro-pyrazolo[3,4-c]pyridin-2-yl)(1,2,3,4-tetrahydro-quinolin-4-yl)methanone] | > 100 | 1
Nc1nn(C(=O)C2CCNc3ccccc32)c2c1CCN(S(=O)(=O)c1ccccc1)C2 (stereo not shown) [Example 106, (3-amino-6-(phenylsulfonyl)-4,5,6,7-tetrahydro-pyrazolo[3,4-c]pyridin-1-yl)(1,2,3,4-tetrahydro-quinolin-4-yl)methanone] | 70 | 50
CC(=O)N1CCc2c(nn(C(=O)C3CCNc4ccccc43)c2N)C1 (stereo not shown) [Example 107, 1-(3-amino-2-(1,2,3,4-tetrahydro-quinoline-4-carbonyl)-4,5-dihydro-2H-pyrazolo[3,4-c]pyridin-6(7H)-yl)ethanone] | > 40 | 1.8
CC(=O)N1CCc2c(N)nn(C(=O)C3CCNc4ccccc43)c2C1 (stereo not shown) [Example 108, 1-(3-amino-1-(1,2,3,4-tetrahydro-quinoline-4-carbonyl)-4,5-dihydro-1H-pyrazolo[3,4-c]pyridin-6(7H)-yl)ethanone] | > 150 | 80
Nc1c2c(nn1C(=O)C1CCNc3ccccc31)CN(C(=O)c1ccccc1)CC2 (stereo not shown) [Example 109, (3-amino-2-(1,2,3,4-tetrahydro-quinoline-4-carbonyl)-4,5-dihydro-2H-pyrazolo[3,4-c]pyridin-6(7H)-yl)(phenyl)-methanone] | > 75 | 0.8
Nc1nn(C(=O)C2CCNc3ccccc32)c2c1CCN(C(=O)c1ccccc1)C2 (stereo not shown) [Example 110, (3-amino-1-(1,2,3,4-tetrahydro-quinoline-4-carbonyl)-4,5-dihydro-1H-pyrazolo[3,4-c]pyridin-6(7H)-yl)(phenyl)-methanone] | > 65 | 60
CNS(=O)(=O)N1CCc2c(nn(C(=O)C3CCNc4ccccc43)c2N)C1 (stereo not shown) [Example 111, 3-amino-N-methyl-2-(1,2,3,4-tetrahydro-quinoline-4-carbonyl)-4,5-dihydro-2H-pyrazolo[3,4-c]pyridine-6(7H)-sulfonamide] | > 50 | 2
CNS(=O)(=O)N1CCc2c(N)nn(C(=O)C3CCNc4ccccc43)c2C1 (stereo not shown) [Example 112, 3-amino-N-methyl-1-(1,2,3,4-tetrahydro-quinoline-4-carbonyl)-4,5-dihydro-1H-pyrazolo[3,4-c]pyridine-6(7H)-sulfonamide] | > 70 | > 70
CNC(=O)N1CCc2c(N)nn(C(=O)C3CCNc4ccccc43)c2C1 (stereo not shown) [Example 113, 3-amino-N-methyl-1-(1,2,3,4-tetrahydro-quinoline-4-carbonyl)-4,5-dihydro-1H-pyrazolo[3,4-c]pyridine-6(7H)-carboxamide] | > 100 | 95
COC(=O)N1CCc2c(nn(C(=O)C3CCNc4ccccc43)c2N)C1 (stereo not shown) [Example 114, methyl 3-amino-2-(1,2,3,4-tetrahydro-quinoline-4-carbonyl)-4,5-dihydro-2H-pyrazolo[3,4-c]pyridine-6(7H)-carboxylate] | > 80 | 0.45
Nc1c2c(nn1C(=O)C1CCNc3ccccc31)CN(C(=O)OCc1ccccc1)CC2 (stereo not shown) [Example 116, benzyl 3-amino-2-(1,2,3,4-tetrahydro-quinoline-4-carbonyl)-4,5-dihydro-2H-pyrazolo[3,4-c]pyridine-6(7H)-carboxylate] | 17 | 1
Nc1nn(C(=O)C2CCNc3ccccc32)c2c1CCN(C(=O)OCc1ccccc1)C2 (stereo not shown) [Example 117, benzyl 3-amino-1-(1,2,3,4-tetrahydro-quinoline-4-carbonyl)-4,5-dihydro-1H-pyrazolo[3,4-c]pyridine-6(7H)-carboxylate] | 5 | 45
Nc1c2c(nn1C(=O)C1CCNc3ccccc31)CNCC2 (stereo not shown) [Example 118, (3-amino-4,5,6,7-tetrahydro-pyrazolo[3,4-c]pyridin-2-yl)(1,2,3,4-tetrahydro-quinolin-4-yl)methanone] | > 100 | 0.6
CCC(=O)N1CCc2c(nn(C(=O)C3CCNc4ccccc43)c2N)C1 (stereo not shown) [Example 119, 1-(3-amino-2-(1,2,3,4-tetrahydro-quinoline-4-carbonyl)-4,5-dihydro-2H-pyrazolo[3,4-c]pyridin-6(7H)-yl)propan-1-one] | > 85 | 0.45
CCC(=O)N1CCc2c(N)nn(C(=O)C3CCNc4ccccc43)c2C1 (stereo not shown) [Example 120, 1-(3-amino-1-(1,2,3,4-tetrahydro-quinoline-4-carbonyl)-4,5-dihydro-1H-pyrazolo[3,4-c]pyridin-6(7H)-yl)propan-1-one] | > 75 | 15
